Here are results for 18 compounds from patent publication US10899738B2 (THE REGENTS OF THE UNIVERSITY OF MICHIGAN, priority 2016, dated 2021).

Each structure is given as a SMILES string. Where two headings read alike, the source gives them in different places.

One assay has as its target menin protein (Homo sapiens (Human), UniProt O00255). Kind of assay: biochemical. It counts as binding. Particulars: FP competitive binding; menin protein 4 nM, FAM-MM2 probe 2 nM; read-out: Menin Binding Affinity IC50. An outline of the steps: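 Competitive fluorescence polarization assay using FAM-labelled MLL1 peptide probe FAM-MM2 (2 nM final) preincubated with menin (4 nM final) in PBS with 0.02% bovine γ-globulin, 4% DMSO and 0.01% Triton X-100. Compounds were added and incubated 30 min at room temperature. IC50 came from nonlinear regression of competition curves, with Ki also derived.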

Assay [1] in a line: Cell growth inhibition, CellTiter-Glo Luminescent Cell Viability Assay. It counts as cell-based. The protocol: Cell growth inhibitory activity of representative menin inhibitors was determined using CellTiter-Glo® Luminescent Cell Viability Assay. Cells were seeded in 384-well white opaque cell culture plates at a density of 2,000 cells/well with serially diluted compounds and incubated at 37° C. in an atmosphere of 95% air and 5% CO2 for 4 days. Cell viability was determined using the CellTiter-Glo® Luminescent Cell Viability Assay Kit (Promega, Madison, Wis.) according to the manufacture's instruction. Briefly, a volume of CellTiter-Glo® Reagent equal to the volume of cell culture medium was added to each well, and then the plates were incubated at room temperature for 10-20 minutes. The luminescent signal was measured using a Tecan Infinite M1000 multimode microplate reader (Tecan, Morrisville, N.C.). The half maximal inhibitory concentration (IC50) was calculated using the GraphPad Prism 5 software (GraphPad Software, La Jolla, Calif.).

[2] abbreviates: MOLM-13, 96 h, MOLM13 cells, 4 days, CellTiter-Glo, read-out: Cell Growth Inhibition IC50 (μM) MOLM13.
The mark [3] stands for this setting: MV4-11, 96 h, MV4, 11 cells, 4 days, CellTiter-Glo, read-out: Cell Growth Inhibition IC50 (μM) MV4, 11.
Where [4] appears, read: MOLM-13, 96 h, read-out: Cell Growth Inhibition IC50 (μM) MOLM13, MOLM13 cells, 4 days, CellTiter-Glo.
Setting [5] is: MV4-11, 96 h, read-out: Cell Growth Inhibition IC50 (μM) MV4, 11, MV4, 11 cells, 4 days, CellTiter-Glo.

menin protein, sequence (O00255 whole entry): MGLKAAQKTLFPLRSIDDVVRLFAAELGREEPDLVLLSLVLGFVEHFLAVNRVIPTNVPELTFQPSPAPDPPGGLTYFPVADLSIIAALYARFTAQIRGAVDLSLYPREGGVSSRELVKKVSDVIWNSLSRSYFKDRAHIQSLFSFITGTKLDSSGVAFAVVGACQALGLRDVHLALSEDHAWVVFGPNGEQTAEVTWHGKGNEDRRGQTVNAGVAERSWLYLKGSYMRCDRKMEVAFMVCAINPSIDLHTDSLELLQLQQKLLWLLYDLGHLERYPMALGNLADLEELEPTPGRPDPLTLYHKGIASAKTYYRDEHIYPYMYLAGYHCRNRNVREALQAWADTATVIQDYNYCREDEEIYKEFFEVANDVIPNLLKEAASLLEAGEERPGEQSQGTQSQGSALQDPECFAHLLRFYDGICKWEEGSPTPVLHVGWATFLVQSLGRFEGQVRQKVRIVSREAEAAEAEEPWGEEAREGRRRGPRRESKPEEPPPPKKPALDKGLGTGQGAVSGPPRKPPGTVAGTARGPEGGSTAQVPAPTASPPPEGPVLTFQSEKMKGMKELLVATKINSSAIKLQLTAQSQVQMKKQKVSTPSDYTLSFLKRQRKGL

A word on the IC50: it is the concentration at which inhibition is half-maximal. With `CCN1Cc2ccccc2C(C2CCCC2)(C2CCN(CC3(F)CN(c4ccc(S(=O)(=O)C5CC5)cc4)C3)CC2)C1` (stereo not drawn) [compound 141, 4-cyclopentyl-4-(1-((1-(4-(cyclopropylsulfonyl)phenyl)-3-fluoroazetidin-3-yl)methyl)piperidin-4-yl)-2-ethyl-1,2,3,4-tetrahy36droisoquinoline], the IC50 on menin protein was determined as 0.028 µM; in assay [1] (setting [2]) it was 54.7 µM; in assay [1] (setting [3]), 4.7 µM.

Turning to `CCN1Cc2ccccc2C(C2CCCC2)(C2CCN(CC3CN(c4ccc(S(=O)(=O)c5cccnc5)cc4)C3)CC2)C1` (stereo not drawn) [compound 152, 4-cyclopentyl-2-ethyl-4-(1-((1-(4-(pyridin-3-ylsulfonyl)phenyl)azetidin-3-yl)methyl)piperidin-4-yl)-1,2,3,4-tetrahydroisoquinoline], the IC50 on menin protein turned out to be 0.009 µM; in assay [1] (setting [2]), 0.49 µM; in assay [1] (setting [3]) it was 0.46 µM.

Regarding `CCN1Cc2ccccc2C(C2CCCC2)(C2CCN(CC3CN(c4ccc(S(=O)(=O)c5ccn(C)c5)cc4)C3)CC2)C1` (stereo not drawn) [compound 101, 4-cyclopentyl-2-ethyl-4-(1-((1-(4-((1-methyl-1H-pyrrol-3-yl)sulfonyl)phenyl)azetidin-3-yl)methyl)piperidin-4-yl)-1,2,3,4-tetrahydroisoquinoline], the figures for the IC50 (at menin protein; in assay [1] (setting [2]); in assay [1] (setting [3])) were 0.01 µM, 0.73 µM and 0.3 µM, respectively.

Take `CC(=O)O[C@H]1CCC[C@@H]1C1(C2CCN(CC3CN(c4ccc(S(=O)(=O)c5ccncc5)cc4)C3)CC2)CN(C)Cc2ccccc21` (mixture of isomers) [compound 206, rac-(1S,2R)-2-(2-methyl-4-(1-((1-(4-(pyridin-4-ylsulfonyl)phenyl)azetidin-3-yl)methyl)piperidin-4-yl)-1,2,3,4-tetrahydroisoquinolin-4-yl)cyclopentyl acetate]: the IC50 at menin protein came to 0.003 µM; in assay [1] (setting [4]), 0.411 ± 0.3 µM; in assay [1] (setting [5]), 0.119 ± 0.048 µM.

`CC(=O)N[C@H]1CCC[C@@H]1C1(C2CCN(CC3CN(c4ccc(S(=O)(=O)c5ccncc5)cc4)C3)CC2)CN(C)Cc2ccccc21` (mixture of isomers) [compound 271, rac-N-((1S,2R)-2-(2-methyl-4-(1-((1-(4-(pyridin-4-ylsulfonyl)phenyl)azetidin-3-yl)methyl)piperidin-4-yl)-1,2,3,4-tetrahydroisoquinolin-4-yl)cyclopentyl)acetamide]: the IC50 was determined as 0.005 µM at menin protein, 0.717 ± 0.002 µM in assay [1] (setting [4]) and 0.123 ± 0.043 µM in assay [1] (setting [5]).

Take `CC(=O)N[C@H]1CCC[C@@H]1C(Cn1ccnc1)(c1ccccc1)C1CCN(CC2CN(c3ccc(S(=O)(=O)c4ccccc4)cc3)C2)CC1` (mixture of isomers) [compound 381, rac-N-((1S,2R)-2-(2-(1H-imidazol-1-yl)-1-phenyl-1-(1-((1-(4-(phenylsulfonyl)phenyl)azetidin-3-yl)methyl)piperidin-4-yl)ethyl)cyclopentyl) acetamide]: the IC50 on menin protein was 0.013 µM; in assay [1] (setting [4]), 0.67 µM; in assay [1] (setting [5]), 0.14 µM.

`O=S(=O)(c1ccccc1)c1ccc(N2CC(CN3CCC(C(CN4CCCC4)(c4ccccc4)[C@H]4C=CCC4)CC3)C2)cc1` (stereo partly drawn) [compound 356, 4-(1-((R)-cyclopent-2-en-1-yl)-1-phenyl-2-(pyrrolidin-1-yl)ethyl)-1-((1-(4-(phenylsulfonyl)phenyl)azetidin-3-yl)methyl)piperidine]: the IC50 on menin protein came out at 0.022 µM; in assay [1] (setting [2]), 0.69 µM; in assay [1] (setting [3]), 0.71 µM.

As for `CCN1Cc2ccccc2C(C2CCN(CC3CN(c4ccc(S(=O)(=O)c5ccn(C)c5)cc4)C3)CC2)([C@H]2CCC[C@@H]2NC(=O)NC)C1` (mixture of isomers) [compound 375, rac-1-((1S,2R)-2-(2-ethyl-4-(1-((1-(4-((1-methyl-1H-pyrrol-3-yl)sulfonyl)phenyl)azetidin-3-yl)methyl)piperidin-4-yl)-1,2,3,4-tetrahydroisoquinolin-4-yl)cyclopentyl)-3-methylurea], the half-inhibitory concentration (IC50) came to 0.011 µM on menin protein, 1.73 µM in assay [1] (setting [4]) and 0.39 µM in assay [1] (setting [5]).

With `CC(=O)O[C@H]1CCC[C@@H]1C1(C2CCN(CC3CN(c4ccc(S(=O)(=O)c5ccnc(C)c5)cc4)C3)CC2)CN(C)Cc2ccccc21` (mixture of isomers) [compound 201, rac-(1S,2R)-2-(2-methyl-4-(1-((1-(4-((2-methylpyridin-4-yl)sulfonyl)phenyl)azetidin-3-yl)methyl)piperidin-4-yl)-1,2,3,4-tetrahydroisoquinolin-4-yl)cyclopentyl acetate], the IC50 on menin protein is 0.005 µM; in assay [1] (setting [4]) it was 0.399 ± 0.153 µM; in assay [1] (setting [5]), 0.09 ± 0.051 µM.

On to `CNC(=O)N[C@H]1CCC[C@@H]1C1(C2CCN(CC3CN(c4ccc(S(=O)(=O)C5CC5)cc4)C3)CC2)CNCc2ccccc21` (mixture of isomers) [compound 285, rac-1-((1S,2R)-2-(4-(1-((1-(4-(cyclopropylsulfonyl)phenyl)azetidin-3-yl)methyl)piperidin-4-yl)-1,2,3,4-tetrahydroisoquinolin-4-yl)cyclopentyl)-3-methylurea], for which the IC50 stood at 0.009 µM at menin protein, 12.4 µM in assay [1] (setting [4]) and 2.48 µM in assay [1] (setting [5]).

Regarding `CCC(=O)O[C@H]1CCC[C@@H]1C(C#N)(c1ccccc1)C1CCN(CC2CN(c3ccc(S(=O)(=O)c4ccncc4)cc3)C2)CC1` (mixture of isomers) [compound 195, rac-(1S,2R)-2-(cyano(phenyl)(1-((1-(4-(pyridin-4-ylsulfonyl)phenyl)azetidin-3-yl)methyl)piperidin-4-yl)methyl)cyclopentyl propionate], the IC50 was 0.01 µM on menin protein, 1.5 µM in assay [1] (setting [4]) and 0.991 µM in assay [1] (setting [5]).

As to `CNC(=O)O[C@H]1CCC[C@@H]1C(C#N)(c1ccccc1)C1CCN(CCCOc2ccc(C#N)cc2)CC1` (mixture of isomers) [compound 232, rac-(1S,2R)-2-(cyano(1-(3-(4-cyanophenoxy)propyl)piperidin-4-yl)(phenyl)methyl)cyclopentyl methylcarbamate], the figures for the IC50 (at menin protein; in assay [1] (setting [4]); in assay [1] (setting [5])) were 0.02 µM, 0.94 µM and 0.3 µM, respectively.

For `CNC(=O)O[C@H]1CCC[C@@H]1C(Cn1ccnc1)(c1ccccc1)C1CCN(CC2CN(c3ccc(Cl)cc3)C2)CC1` (mixture of isomers) [compound 407, rac-(1S,2R)-2-(1-(1-((1-(4-chlorophenyl)azetidin-3-yl)methyl)piperidin-4-yl)-2-(1H-imidazol-1-yl)-1-phenylethyl)cyclopentyl methylcarbamate], the IC50 at menin protein was 0.005 µM; in assay [1] (setting [4]), 0.69 ± 0.089 µM; in assay [1] (setting [5]), 0.41 ± 0.28 µM.

Consider `CCN1Cc2ccccc2C(C2CCCC2)(C2CCN(CC3CN(c4ccc(S(=O)(=O)c5ccc(C(=O)O)cc5)cc4)C3)CC2)C1` (stereo not drawn) [compound 164, 4-((4-(3-((4-(4-cyclopentyl-2-ethyl-1,2,3,4-tetrahydroisoquinolin-4-yl)piperidin-1-yl)methyl)azetidin-1-yl)phenyl)sulfonyl)benzoic acid], for which the IC50 at menin protein stood at 0.008 µM; in assay [1] (setting [2]) it was 0.72 µM; in assay [1] (setting [3]), 0.27 µM.

On to `CNC(=O)N[C@H]1CCC[C@@H]1C1(C2CCN(CC3CN(c4ccc(S(=O)(=O)c5cnn(C)c5)cc4)C3)CC2)CN(C)Cc2ccccc21` (mixture of isomers) [compound 284, rac-1-methyl-3-((1S,2R)-2-(2-methyl-4-(1-((1-(4-((1-methyl-1H-pyrazol-4-yl)sulfonyl)phenyl)azetidin-3-yl)methyl)piperidin-4-yl)-1,2,3,4-tetrahydroisoquinolin-4-yl)cyclopentyl)urea], for which the IC50 on menin protein was 0.011 µM; in assay [1] (setting [4]), more than 10 µM; in assay [1] (setting [5]) it was 2.59 µM.

Regarding `CN1Cc2ccccc2C(C2CCCC2)(C2CCN(CCCOc3ccc(C#N)cc3)CC2)C1` (stereo not drawn) [compound 23, 4-(3-(4-(4-cyclopentyl-2-methyl-1,2,3,4-tetrahydroisoquinolin-4-yl)piperidin-1-yl)propoxy)benzonitrile], the figures for the concentration for half-maximal inhibition (IC50) (at menin protein; in assay [1] (setting [4]); in assay [1] (setting [5])) were 0.054 µM, 5 µM and 1 ± 0.4 µM, respectively.

Turning to `CNC(=O)O[C@H]1CCC[C@@H]1C(Cn1ccnc1)(c1ccccc1)C1CCN(CC2CN(c3ccc(S(=O)(=O)c4ccc(C(=O)O)cc4)cc3)C2)CC1` (mixture of isomers) [compound 363, rac-4-((4-(3-((4-(2-(1H-imidazol-1-yl)-1-((1R,2S)-2-((methylcarbamoyl)oxy)cyclopentyl)-1-phenylethyl)piperidin-1-yl)methyl)azetidin-1-yl)phenyl)sulfonyl)benzoic acid], the 50% inhibitory concentration (IC50) at menin protein was 0.027 µM; in assay [1] (read-out: Cell Growth Inhibition IC50 (μM) MOLM13, MOLM13 cells, 4 days, CellTiter-Glo), 2.64 µM; in assay [1] (read-out: Cell Growth Inhibition IC50 (μM) MV4, 11, MV4, 11 cells, 4 days, CellTiter-Glo), 0.56 µM.

For `O=S(=O)(CC1CCCC1)c1ccc(N2CC(CN3CCC(C4(C5CCCC5)NCCc5ccccc54)CC3)C2)cc1` (stereo not drawn) [compound 91, 1-cyclopentyl-1-(1-((1-(4-((cyclopentylmethyl)sulfonyl)phenyl)azetidin-3-yl)methyl)piperidin-4-yl)-1,2,3,4-tetrahydroisoquinoline], the figures for the IC50 (on menin protein; in assay [1] (setting [2]); in assay [1] (setting [3])) were 0.042 µM, 1.7 ± 0.004 µM and 1.3 ± 0.3 µM, respectively.
